Measurements: ChEMBL document CHEMBL1131629, “4-Benzylamino-1-chloro-6-substituted phthalazines: synthesis and inhibitory activity toward phosphodiesterase 5” (J Med Chem, 1998)

Species: Sus scrofa
Test: Vasorelaxation effect in porcine coronary arteries precontracted with PGF2-alpha
Format: functional

In the case of `COc1ccc(CNc2nnc(Cl)c3ccc(C#N)cc23)cc1Cl`, the EC50 is reported as 150 nM.

`O=C(O)C1CCN(c2nc(NCc3ccc4c(c3)OCO4)c3cc(Cl)ccc3n2)CC1` was tested, and the EC50 was 980 nM.

Work on `COc1ccc(CNc2nnc(Cl)c3ccc([N+](=O)[O-])cc23)cc1Cl` yielded an EC50 of 160 nM.
